# Reference: patent US20100120902A1, “STANDARIZED BIOACTIVE HERBAL EXTRACTS” (RANBAXY LABORATORIES LIMITED, priority 2007, published 2010)
# Key:
# [1] = tested on: IL-2 production in human PBMCs; conditions: phytohemagglutinin stimulated; Pandey et al 2005; cited from earlier work
# [2] = tested on: TNF-α production in human PBMCs; conditions: lipo-polysaccharide induced; Pandey et al 2005; cited from earlier work
# [3] = tested on: nuclear factor-(kappa)B and transcription factor AP-1; conditions: Pandey et al 2005; cited from earlier work
# [4] = tested on: PBM cells (peripheral blood mononuclear cells); experiment: In-vitro mitogen induced lymphocyte proliferation assay (3H-thymidine uptake); type: cell-based; conditions: Homo sapiens, PBMC; 20 μg/ml
# Experimental: Blood (20 ml) was collected from healthy volunteers in a […] 10 ml of lymphoprep (Nycomed pharma, AS) and centrifuged at 1800 rpm for 30 minutes at 23° C., mononuclear cell containing buffy layer was transferred to another tube and washed three times with PBS (phosphate buffered saline) and centrifuged at 1500 rpm for 15 minutes. […] PBM cells were adjusted to a concentration of 1×10^6 cells/ml in RPMI buffer (Biochrom AG) and 2×10^5 cells/well were seeded in a total volume of 200 μl to a 96 well U bottom plate. […] Cultures were incorporated with 0.5 μCi[3H], 18 hours before the completion of incubation and cells were harvested on glass fiber filter using multi-well harvester and thymidine uptake was determined by measuring radioactivity on liquid scintillation counter and the mean count per minute (CPM) of triplicate was calculated.
# [5] = tested on: TNF-α, IL-1β and iNOS mRNA expression in RAW 264.7 cells; experiment: In-vitro effect on gene expression of inflammatory mediators (semi-quantitative RT-PCR); type: cell-based, mouse; conditions: 12 hrs incubation
# [6] = tested on: LTB4 release from neutrophils; experiment: In-vitro leukotriene B4 (LTB4) release assay (A23187, ELISA); type: cell-based; conditions: Homo sapiens, Neutrophil; A23187 stimulated
# Experimental: Neutrophils were isolated from freshly drawn human blood after dextran sedimentation and ficoll separation [Hatzelmann and Ullrich, Eur. J. […] Ca^++/Mg^++ (0.25 mM) was added, 3 minutes before the end of incubation with these test samples. Then, 0.3 μg/ml of A23187 (Calcimycin) was added and incubated for further 10 minutes. The reaction was stopped by adding 80 μl of cold methanol and mixture was spun at 3500 rpm for 10 minutes to remove cell debris. The samples were analyzed for LTB4 assay [Hatzelmann and Schudt, J. Pharmacol. Exp. […] (2001), 267-279] using LTB4 ELISA kits (Assay Design Inc., USA). The amount of LTB4 was quantified and percent inhibition in LTB4 release was calculated with respect to control (without test sample) to compute IC50 values.
# [7] = tested on: TNF-α release from PBM cells; experiment: In-vitro TNF-α release inhibition assay from PBMCs (LPS, ELISA); type: cell-based; conditions: Homo sapiens, PBMC; LPS stimulated PBM cells
# Experimental: (§1) Blood (20 ml) was collected from healthy volunteers in a heparanised vial with 10 ml of lymphoprep (Nycomed pharma, AS) and centrifuged at 1800 rpm for 30 minutes at 23° C., mononuclear cell containing buffy layer was transferred to another tube and washed three times with PBS (phosphate buffered saline) and centrifuged at 1500 rpm for 15 minutes. Pellet cells were resuspended in 2 ml of RPMI-1640 medium (Biochrom, AG) supplemented with 25 mM HEPES [N-(2-hydroxyethyl)piperazine-N′-(2-ethanesulfonic acid)], L-glutamine (2 mM), penicillin (100 U/ ml), streptomycin (100 μg/ml) and 10% inactivated FCS (fetal calf serum) and, finally viable cells were counted.
# (§2) PBM cells were adjusted to 1×10^6 cells/ml number in RPMI 1640 medium, (Biochrom AG) and 100 μl volume of this cell suspension per well was plated in a 96 well plate. […] Twenty μl of DMSO control and each concentration of these prepared test samples were added to corresponding wells in a 96 well plate. The plate was incubated for 30 minutes at room temperature on rotatory shaker at 200 rpm and 50 μl of lipopolysacchride (LPS) (4 μg/ml) was added to each well, except negative LPS control wells. […] A dose response curve was generated with different concentrations of test sample and the IC50 was calculated using Graph Pad Prism. […]
# [8] = tested on: IL-1β release from PBM cells; experiment: In-vitro IL-1β release inhibition assay from PBMCs (LPS, ELISA); type: cell-based; conditions: Homo sapiens, PBMC; LPS stimulated PBM cells; read-out: IC50 against IL-1β release
# Experimental: as §1, §2
# supernatant cells = experiment: Cell viability/toxicity test (MTT assay); type: cell-based
# Experimental: Viability of cells was analyzed using (3-4,5-dimethylthiazol-2-yl)-2,5-diphenyl-tetrazolium bromide (MTT) assay (Mosmann T, J Immunol. Meth., 65 (1983), 55-63) with supernatant cells by adding 0.1 mL of MTT (0.25 mg/mL) with 0.1 mL of supernatant cells. The cells were incubated at 37° C. for about 2-4 hours, and then the optical density was measured at 490-650 nm.
# [9] = tested on: carrageenan induced hyperalgesia; experiment: Analgesic efficacy against carrageenan induced hyperalgesia; type: in vivo, wistar rats; conditions: 5 mg/kg oral, after 2 hours
# CFA induced hyperalgesia = experiment: Antihyperalgesic activity against Complete Freund's adjuvant (CFA) induced hyperalgesia; type: in vivo, rats; conditions: 5 mg/kg oral, 2 hours post treatment
# Experimental: Basal weight bearing threshold of the rats was determined using Randall Selitto analgesiometer (Ugo Basile, Italy) followed by challenge with Complete Freund's adjuvant (a suspension of desiccated Mycobacterium butyricum in a mixture of paraffin oil and an emulsifying agent, mannide monooleate; 50 μL of 500 μg/ml suspension/animal), injected subplantarly. Twenty four hours later weight-bearing threshold of the animals was recorded as pre-dose values at time 0 hours. […] Two hours post treatment, weight-bearing threshold of the animals was recorded again. […] One group was treated with Incomplete Freund's adjuvant (IFA) and served as negative control group.
# [10] = tested on: carrageenan induced paw edema; experiment: Anti-inflammatory efficacy against carrageenan induced paw edema model; type: in vivo, rats; conditions: 5 mg/kg oral, 3 hours post carrageenan
# Experimental: One hour later, animals were challenged with carrageenan (1% w/v, 100 μL/rat) subplantarly. The paw edema was recorded 3 hours post carrageenan challenge. Data from each group was expressed as mean±SEM. Change in paw edema in treatment group were compared from vehicle control group using one-way ANOVA followed by Dunnett's multiple comparison test. A p≦0.05 was considered statistically significant.
# [11] = tested on: CFA induced arthritis (contra-lateral paw volume); experiment: Antiarthritic efficacy against CFA induced arthritis model; type: in vivo, Wistar rats; conditions: 0.2 mg/kg/day
# Experimental: Wistar rats were injected with 50 μL of 1 mg/ml solution of Complete Freund's adjuvant (CFA) subplantarly. […] The animals showing 0.30-0.40 ml increase in paw volume of the contralateral paw from the basal were included in the study.
# The test sample or vehicle (polyethylene glycol+water 20:80) was administered in two divided doses for 10 days. The paw volume of the animals was recorded on the alternate days. A plot of change in paw volume from day 0 was made and area under the curve (AUC) was calculated using GraphPad Prism software (GraphPad Software Inc, USA, Version 4) for each animal and was averaged in each treatment group.
# [12] = tested on: CFA induced arthritis in ankle joint; experiment: Histopathological analysis of CFA induced arthritis in ankle joint; type: in vivo, Wistar rats
# Experimental: At the end of the study (p), animals were euthanized and ankle joints of contra-lateral hind limb were collected for histopathological evaluation Ankle joints were evaluated for the effect on synovial proliferation, inflammation of soft tissues, pannus formation and erosion of cartilage as well as bone (FIG. 13). The changes observed were scored as 0=no change, 1 mild, 2=moderate, 3=marked and 4=severe. The scores for each parameter mentioned above were summed to obtain total histopathological score for each animal.
# [13] = tested on: formalin induced Phase I and Phase II pain; experiment: Analgesic efficacy against formalin test; type: in vivo, mice; conditions: 10 mg/kg i.p.
# Experimental: Thirty minutes later, formalin solution (1% w/v, 25 μL/mice) was injected subplantarly in mice and immediately after injection, duration of mice licking or flicking of the injected paw was recorded for a period of 30 minutes in 5 minute slots. The first five minutes duration constitutes Phase-I pain which is centrally mediated while Phase-II pain which lasts from 10-30 minutes is peripherally mediated pain. Values of each group were expressed as mean±SEM (standard error of mean) and comparison was made with control group using one-way ANOVA followed by Dunnett's multiple test and a p≦0.05 was considered statistically significant.
# [14] = tested on: LPS induced TNF-α release (plasma); experiment: Anti-inflammatory efficacy against endotoxemia; type: in vivo, female Balb/C mice; conditions: 10 mg/kg oral
# Text: One hour later, animals were challenged with LPS (lipopolysacchride). Ninety minutes later, blood was collected and TNF-α was estimated in the plasma using ELISA kit and values for each treatment group was expressed as mean±SEM. Comparison was made with control group using one-way ANOVA followed by Dunnett's multiple test and a p≦0.05 was considered statistically significant.
compound,measurement,setting,value
"COc1cc2oc(-c3ccc(O)cc3)c(OC3OC(CO)C(O)C(O)C3O)c(=O)c2c(O)c1OC [Bd-I, eupalitin-3-O-beta-D-galactopyranoside]",production of IL-2 at the protein and mRNA transcript levels,[1],inhibited
same,TNF-α production,[2],inhibited
same,activation of DNA binding of nuclear factor-(kappa)B and AP-1,[3],block the activation of DNA binding
Cc1c(O)cc2oc3c(c(=O)c2c1O)-c1ccccc1OC3O (centres unmarked) [Boeravinone B],inhibition at 20 µg/mL,[4],66%
same,"expression of TNF-α, IL-1β and iNOS",[5],down regulated all the 3 inflammatory mediators
same,IC50,[6],> 100 µg/mL
same,IC50,[7],6.8 µg/mL
same,IC50,[8],3.6 µg/mL
same,concentration at 50% viability of tested cells,supernatant cells,64.5 µg/mL
Cc1c(O)cc2oc3c(c(=O)c2c1O)-c1ccc(O)cc1OC3O (centres unmarked) [Boeravinone E],inhibition at 20 µg/mL,[4],59%
same,"expression of TNF-α, IL-1β and iNOS",[5],down regulated all the 3 inflammatory mediators
same,IC50,[6],21.8 µg/mL
same,IC50,[7],7 µg/mL
same,IC50,[8],7 µg/mL
same,concentration at 50% viability of tested cells,supernatant cells,81.5 µg/mL
COc1ccc2c(c1)c(CC(=O)O)c(C)n2C(=O)c1ccc(Cl)cc1 [Indomethacin],inhibition (carrageenan induced hyperalgesia),[9],66%
same,reversal of the hyperalgesia induced by CFA,CFA induced hyperalgesia,64%
same,inhibition of carrageenan induced paw edema,[10],48%
same,paw edema,[11],reversal of the paw edema toward basal level
same,% inhibition (histopathological score),[12]; 0.2 mg/kg,62.8%
same,recruitment of inflammatory cells,"[12]; 0.2 mg/kg/day, FIG. 13 A",completely prevented the recruitment of inflammatory cells
same,Pannus formation,"[12]; 0.2 mg/kg/day, FIG. 13 B",mild
same,inhibitory effect on cartilage degradation,"[12]; 0.2 mg/kg/day, FIG. 13 C",prominent
CC(C)=CCN1CCC2(C)c3cc(O)ccc3CC1C2C (centres unmarked) [Pentazocin],percent protection in Phase-I pain,[13],40%
same,percent protection in Phase-II pain,[13],50%
O=c1ncn2nc(Sc3ccc(F)cc3F)ccc2c1-c1c(Cl)cccc1Cl [Vx745],inhibition of LPS response (TNF-α),[14],59%
